From PMC8865918 (Journal of medicinal chemistry, 2022)
Where “and” joins values, the source holds several entries; their conditions need not be identical. Equal values may be shown once. Where a name gives a salt, the structure may show the parent alone. One block for each compound: values may come before it.

Key:
[1] = 30 (6a); ref 9 (6b); cited from earlier work
soluble hCD73 = target: T1, soluble hCD73 (Homo sapiens, UniProt P21589); experiment: Inhibition of soluble hCD73; type: biochemical; conditions: for fold increase in potency (decrease in Ki) relative to compound 9: versus N^4-benzyloxy compound 9; for fold more potent than 22: versus compound 22
T1 sequence (P21589 27-549 limits assumed): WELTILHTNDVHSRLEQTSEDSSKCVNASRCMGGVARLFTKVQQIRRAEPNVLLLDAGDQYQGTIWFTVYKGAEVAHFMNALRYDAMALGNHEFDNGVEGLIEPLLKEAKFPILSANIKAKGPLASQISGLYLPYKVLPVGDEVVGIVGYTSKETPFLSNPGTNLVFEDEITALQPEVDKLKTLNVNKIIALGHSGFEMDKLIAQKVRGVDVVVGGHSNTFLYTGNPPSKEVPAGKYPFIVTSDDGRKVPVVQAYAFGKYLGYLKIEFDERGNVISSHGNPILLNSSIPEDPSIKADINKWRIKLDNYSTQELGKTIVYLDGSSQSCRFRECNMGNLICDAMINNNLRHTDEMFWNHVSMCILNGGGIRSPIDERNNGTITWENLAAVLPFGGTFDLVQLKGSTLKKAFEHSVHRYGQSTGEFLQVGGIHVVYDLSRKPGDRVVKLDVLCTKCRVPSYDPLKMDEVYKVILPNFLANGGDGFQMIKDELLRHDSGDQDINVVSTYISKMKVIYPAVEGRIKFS

rat soluble CD73 = conditions: read-out: Ki ± SEM; cited from earlier work
[2] = target: T2, tonsillar CD73 (human palatine tonsil cryosections) (Homo sapiens, UniProt P21589); experiment: In situ ecto-5′-nucleotidase; type: biochemical; conditions: 50–250 nM inhibitor; 100 μM AMP; tonsillar germinal centers
T2 sequence (P21589 27-574): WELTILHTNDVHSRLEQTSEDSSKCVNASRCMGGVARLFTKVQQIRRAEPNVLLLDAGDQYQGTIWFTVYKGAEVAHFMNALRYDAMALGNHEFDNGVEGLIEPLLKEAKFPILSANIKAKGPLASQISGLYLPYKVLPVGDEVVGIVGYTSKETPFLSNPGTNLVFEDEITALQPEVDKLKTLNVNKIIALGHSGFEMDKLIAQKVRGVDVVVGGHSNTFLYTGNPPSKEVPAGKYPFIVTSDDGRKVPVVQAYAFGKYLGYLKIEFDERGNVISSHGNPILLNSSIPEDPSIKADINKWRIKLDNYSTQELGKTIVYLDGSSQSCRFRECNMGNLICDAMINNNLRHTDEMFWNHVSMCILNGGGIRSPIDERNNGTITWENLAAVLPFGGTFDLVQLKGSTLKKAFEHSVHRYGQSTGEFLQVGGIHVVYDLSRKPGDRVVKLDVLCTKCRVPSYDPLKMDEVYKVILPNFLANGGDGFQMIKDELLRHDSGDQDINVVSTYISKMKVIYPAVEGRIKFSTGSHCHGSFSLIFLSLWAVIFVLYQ

σ1 receptor = σ1 receptor (Homo sapiens, UniProt Q99720); experiment: Off-target binding, Psychoactive Drug Screening Program
Sequence of σ1 receptor (Q99720 whole entry, species assumed): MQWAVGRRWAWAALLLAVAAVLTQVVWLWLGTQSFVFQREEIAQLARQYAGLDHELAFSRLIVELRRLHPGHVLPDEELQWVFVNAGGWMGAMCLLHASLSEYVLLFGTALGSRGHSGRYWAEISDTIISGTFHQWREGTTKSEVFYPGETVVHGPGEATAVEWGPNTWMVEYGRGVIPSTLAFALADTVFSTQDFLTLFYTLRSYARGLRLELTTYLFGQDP

Compound: C[C@H](Nc1cc(Cl)nc2c1cnn2[C@@H]1O[C@H](COP(=O)(O)CP(=O)(O)O)[C@@H](O)[C@H]1O)c1ccccc1F [Compound 6a, Quemliclustat]
- oral bioavailability [1]: display oral bioavailability

- fold increase in potency (decrease in Ki) relative to compound 9 (soluble hCD73; soluble hCD73): 6–7 fold
Compound: CCN(CC)CC.CCN(CC)CC.Cn1c(=O)n([C@@H]2O[C@H](COP(=O)(O)CP(=O)(O)O)[C@@H](O)[C@H]2O)cc/c1=N/OCc1ccccc1Cl [Compound 10, N^4-(2-Chlorobenzyloxy)-3-methylcytidine-5′-α,β-methylenediphosphonate Triethylammonium Salt]

- fold weaker inhibitor than ribose analogue 16 (soluble hCD73; soluble hCD73, versus compound 16): 88 fold and ~ 90 fold
Compound: CCN(CC)CC.CCN(CC)CC.Cn1c(=O)n([C@H]2[C@H](O)[C@H](O)[C@]3(COP(=O)(O)CP(=O)(O)O)C[C@H]23)cc/c1=N/OCc1ccc(Cl)cc1 [Compound 29, [({[(2R,3S,4R,5S)-4-(4-{[(4-Chlorobenzyl)oxy]imino}-3-methyl-2-oxo-3,4-dihydropyrimidin-1(2H)-yl)-2,3-dihydroxy-1λ^5-bicyclo[3.1.0]hexan-1-yl]methoxy}(hydroxy)phosphoryl)methyl]phosphonic Acid Triethylammonium Salt]

Compound: COC[C@](CO)(OC[C@H]1O[C@@H](n2ncc3c(NC4CCCC4)nc(Cl)nc32)[C@H](O)[C@@H]1O)P(=O)(O)O [Compound 6b, OP-5244]
- oral bioavailability [1]: display oral bioavailability

Compound: N^4-benzyloxy-3-methylcytidine-5′-α,β-methylene-diphosphonate [Compound 9]
- Ki (rat soluble CD73): 3.67 nM

- effect on catalytic (AMPase) activity of tonsillar CD73 in situ [2]: decreased the catalytic activities
Compound: CCN(CC)CC.CCN(CC)CC.Cn1c(=O)n([C@@H]2O[C@H](COP(=O)(O)CP(=O)(O)O)[C@@H](O)[C@H]2O)cc/c1=N/OCc1ccc(S(F)(F)(F)(F)F)cc1 [Compound 20, N^4-[4-(Pentafluorosulfanyl)benzyloxy]-3-methylcytidine-5′-α,β-methylenediphosphonate Triethylammonium Salt]

- fold more potent than 22 (soluble hCD73; soluble hCD73): 5 fold
Compound: CCN(CC)CC.CCN(CC)CC.Cn1c(=O)n([C@@H]2O[C@H](COP(=O)(O)CP(=O)(O)O)[C@@H](O)[C@H]2O)cc/c1=N/OCc1ccc(C(=O)NCCC(=O)O)cc1 [Compound 27, N^4-{4-[(2-Carboxyethyl)carbamoyl]benzyloxy}-3-methylcytidine-5′-α,β-methylenediphosphonate Triethylammonium Salt]

- inhibition at 50 µM (soluble hCD73): 28%
- % inhibition (soluble hCD73; soluble hCD73, between 0.03 nM and 50 μM): < 50%
Compound: CCN(CC)CC.CCN(CC)CC.O=c1ccn([C@H]2[C@H](O)[C@H](O)[C@]3(COP(=O)(O)CP(=O)(O)O)C[C@H]23)c(=O)[nH]1 [Compound 28, {[({(2R,3S,4R,5S)-4-[2,4-Dioxo-3,4-dihydropyrimidin-1(2H)-yl]-2,3-dihydroxy-1λ^5-bicyclo[3.1.0]hexan-1-yl}methoxy)(hydroxy)phosphoryl]methyl}phosphonic Acid Triethylammonium Salt]

- fold weaker than methyl ester 21 (soluble hCD73; soluble hCD73, versus compound 21): 2 fold
Compound: CCN(CC)CC.CCN(CC)CC.Cn1c(=O)n([C@@H]2O[C@H](COP(=O)(O)CP(=O)(O)O)[C@@H](O)[C@H]2O)cc/c1=N/OCc1ccc(C(N)=O)cc1 [Compound 23, N^4-[4-(Carbamoyl)benzyloxy]-3-methylcytidine-5′-α,β-methylenediphosphate Triethylammonium Salt]

- fold increase in potency (decrease in Ki) relative to compound 9 (soluble hCD73; soluble hCD73): ~ 20 fold and 24 fold
- effect on catalytic (AMPase) activity of tonsillar CD73 in situ [2]: decreased the catalytic activities
Compound: CCN(CC)CC.CCN(CC)CC.Cn1c(=O)n([C@@H]2O[C@H](COP(=O)(O)CP(=O)(O)O)[C@@H](O)[C@H]2O)cc/c1=N/OCc1ccc(I)cc1 [Compound 18, N^4-(4-Iodobenzyloxy)-3-methylcytidine-5′-α,β-methylenediphosphonate Triethylammonium Salt]

- fold more potent than 22 (soluble hCD73; soluble hCD73): 5 fold
Compound: CCN(CC)CC.CCN(CC)CC.CCOC(=O)CCNC(=O)c1ccc(CO/N=c2/ccn([C@@H]3O[C@H](COP(=O)(O)CP(=O)(O)O)[C@@H](O)[C@H]3O)c(=O)n2C)cc1 [Compound 26, N^4-{4-[(3-Ethoxy-3-oxopropyl)carbamoyl]benzyloxy}-3-methylcytidine-5′-α,β-methylenediphosphonate Triethylammonium Salt]

- Ki (σ1 receptor): 2610 ± 640 nM
Compound: Cn1c(=O)n([C@@H]2O[C@H](COP(=O)(O)CP(=O)(O)O)[C@@H](O)[C@H]2O)cc/c1=N/OCc1ccc(Cl)cc1 [Compound 16, N^4-(4-Chlorobenzyloxy)-3-methylcytidine-5′-α,β-methylenediphosphonate Triethylammonium Salt]

- fold increase in potency (decrease in Ki) relative to compound 9 (soluble hCD73; soluble hCD73): 6–7 fold
Compound: CCN(CC)CC.CCN(CC)CC.Cn1c(=O)n([C@@H]2O[C@H](COP(=O)(O)CP(=O)(O)O)[C@@H](O)[C@H]2O)cc/c1=N/OCc1cccc(Cl)c1 [Compound 11, N^4-(3-Chlorobenzyloxy)-3-methylcytidine-5′-α,β-methylenediphosphonate Triethylammonium Salt]
